Consider five compounds from ChEMBL document CHEMBL3120074, “p-Terphenyl O-β-glucuronides, DNA topoisomerase inhibitors from Streptomyces sp. LZ35ΔgdmAI” (2014).

Molecules are shown by their SMILES. Active and inactive are the calls of the source. The calls are words filed in the database; no cut-off is given here.

Assay [1] in a line: Antifungal activity against Monilia albican ATCC 10231 at 30 ug/disc after 48 hrs by paper disc diffusion assay. Format: functional. (In agar diffusion tests the substance spreads into inoculated agar from a disc or well.)
Another assay has as its system Globisporangium ultimum. As to the kind of experiment: Antifungal activity against Pythium ultimum PR9.00318 at 30 ug/disc after 48 hrs by paper disc diffusion assay. Format: functional, organism-based.
In another assay the test system is Rhizoctonia solani. Nature of the assay: Antifungal activity against Rhizoctonia solani GXE4 at 30 ug/disc after 48 hrs by paper disc diffusion assay. Format: functional, organism-based.
Assay [2] concerns the target DNA topoisomerase 2-alpha (Homo sapiens) (UniProt P11388). As to the kind of experiment: Inhibition of human recombinant DNA topoisomerase 2alpha-mediated relaxation of supercoiled pBR322 DNA at 100 uM after 30 mins by agarose gel electrophoresis.
For a further assay, the species on record is Bos taurus. Nature of the assay: Inhibition of calf thymus DNA topoisomerase 1-mediated relaxation of supercoiled pBR322 DNA at 100 uM after 30 mins by agarose gel electrophoresis.
The test system of assay [3] is Mycolicibacterium smegmatis. Nature of the assay: Antibacterial activity against Mycobacterium smegmatis MC2 155 at 30 ug/disc after 24 hrs by paper disc diffusion assay. Format: functional. The settings on record: str. MC2 155, 24 h, read-out: DIZ.
The test system of another assay is Bacillus subtilis. Nature of the assay: Antibacterial activity against Bacillus subtilis ACCC 11060 at 30 ug/disc after 24 hrs by paper disc diffusion assay. Format: functional. As to conditions: ACCC 11060, 24 h, read-out: DIZ.

Sequence of DNA topoisomerase 2-alpha (Homo sapiens) (P11388 whole entry): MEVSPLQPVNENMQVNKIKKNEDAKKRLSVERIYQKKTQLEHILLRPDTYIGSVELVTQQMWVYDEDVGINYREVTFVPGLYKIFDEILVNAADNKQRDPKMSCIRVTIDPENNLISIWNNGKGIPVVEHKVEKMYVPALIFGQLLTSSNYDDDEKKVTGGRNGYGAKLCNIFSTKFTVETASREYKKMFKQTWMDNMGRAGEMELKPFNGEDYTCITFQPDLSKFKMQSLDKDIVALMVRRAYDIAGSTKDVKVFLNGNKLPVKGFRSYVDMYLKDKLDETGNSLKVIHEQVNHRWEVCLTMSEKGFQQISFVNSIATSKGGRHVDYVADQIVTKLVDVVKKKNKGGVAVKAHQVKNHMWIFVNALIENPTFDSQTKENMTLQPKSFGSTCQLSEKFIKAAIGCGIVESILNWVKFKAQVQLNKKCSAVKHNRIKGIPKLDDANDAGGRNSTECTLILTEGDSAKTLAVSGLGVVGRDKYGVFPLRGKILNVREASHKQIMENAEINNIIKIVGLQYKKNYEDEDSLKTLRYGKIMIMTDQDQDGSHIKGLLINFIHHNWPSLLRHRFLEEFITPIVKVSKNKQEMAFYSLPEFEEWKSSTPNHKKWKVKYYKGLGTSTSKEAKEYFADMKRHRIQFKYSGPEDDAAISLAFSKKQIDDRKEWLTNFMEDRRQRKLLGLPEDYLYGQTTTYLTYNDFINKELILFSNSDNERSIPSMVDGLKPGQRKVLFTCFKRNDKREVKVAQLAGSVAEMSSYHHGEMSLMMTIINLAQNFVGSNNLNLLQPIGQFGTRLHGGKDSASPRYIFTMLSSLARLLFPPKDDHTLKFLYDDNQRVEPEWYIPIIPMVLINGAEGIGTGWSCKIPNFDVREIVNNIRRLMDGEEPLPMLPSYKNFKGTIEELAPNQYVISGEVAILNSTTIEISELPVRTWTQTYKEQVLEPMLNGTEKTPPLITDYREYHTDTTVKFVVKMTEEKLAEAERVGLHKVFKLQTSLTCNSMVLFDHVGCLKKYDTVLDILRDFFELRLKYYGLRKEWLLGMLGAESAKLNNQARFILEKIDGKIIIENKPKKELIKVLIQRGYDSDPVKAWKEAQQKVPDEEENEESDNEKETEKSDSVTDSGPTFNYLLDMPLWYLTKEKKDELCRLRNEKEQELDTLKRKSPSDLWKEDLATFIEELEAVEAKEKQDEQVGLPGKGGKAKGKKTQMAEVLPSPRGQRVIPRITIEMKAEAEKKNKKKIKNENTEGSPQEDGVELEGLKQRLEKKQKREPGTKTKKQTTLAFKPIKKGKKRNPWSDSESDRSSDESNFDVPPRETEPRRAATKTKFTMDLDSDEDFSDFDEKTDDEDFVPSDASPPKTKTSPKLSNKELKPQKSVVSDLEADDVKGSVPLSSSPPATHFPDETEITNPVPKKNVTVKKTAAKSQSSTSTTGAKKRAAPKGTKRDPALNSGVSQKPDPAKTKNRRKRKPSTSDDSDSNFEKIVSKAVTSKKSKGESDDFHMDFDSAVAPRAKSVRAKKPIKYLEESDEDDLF

Take `COc1c(-c2ccccc2)cc(O[C@@H]2O[C@H](C(=O)O)[C@@H](O)[C@H](O)[C@H]2O)c(-c2ccccc2)c1O`: the outcome (in assay [1]; with Globisporangium ultimum; in the assay with Rhizoctonia solani) was inactive. In addition, in assay [2], the inhibition entry was “Active”.
Consider `O=C(O)[C@H]1O[C@@H](Oc2c(O)c(-c3ccccc3)c3scnc3c2-c2ccccc2)[C@H](O)[C@@H](O)[C@@H]1O`, for which the outcome (in assay [1]; with Globisporangium ultimum; in the assay with Rhizoctonia solani) was inactive. The inhibition result (in assay [2]; in the assay filed under Bos taurus) was “inactive” in each case.
As to `Cn1c(=O)sc2c(-c3ccccc3)c(O)c(O[C@@H]3O[C@H](C(=O)O)[C@@H](O)[C@H](O)[C@H]3O)c(-c3ccccc3)c21`, the outcome (in assay [1]; in the assay on Globisporangium ultimum; in the assay with Rhizoctonia solani) was inactive. Moreover, the inhibition entry (in assay [2]; in the assay filed under Bos taurus) was “inactive” each time.
As to `O=C(O)[C@H]1O[C@@H](Oc2c(-c3ccccc3)cc(O)c(-c3ccccc3)c2O)[C@H](O)[C@@H](O)[C@@H]1O`, the zone of inhibition at 30 µg/disc in assay [3] was found to be 11.2 mm; in the assay on Bacillus subtilis, 15.8 mm. Besides, the outcome (in assay [1]; with Globisporangium ultimum; in the assay on Rhizoctonia solani) was inactive. Moreover, the inhibition result in assay [2] is “Active”.
As to `COC(=O)[C@H]1O[C@@H](Oc2c(-c3ccccc3)cc(O)c(-c3ccccc3)c2O)[C@H](O)[C@@H](O)[C@@H]1O`, the zone of inhibition at 30 µg/disc in assay [3] amounted to 12 mm; with Bacillus subtilis, 14 mm. For the same compound, the result (in assay [1]; in the assay with Globisporangium ultimum; with Rhizoctonia solani) was inactive. Moreover, the inhibition entry (in assay [2]; in the assay filed under Bos taurus) was “Active” throughout.
